Patent US9938279B2, “Method for treating disease or condition susceptible to amelioration by AMPK activators and compounds of formula which are useful to activate AMP-activated protein kinase (AMPK)” (ENERGENESIS BIOMEDICAL CO., LTD, priority 2013, dated 2018)

Legend:
AMPK [1] = test: AMPK activation assay (western blot phospho-AMPK Thr172) in C2C12; format: cell-based, mouse; conditions: C2C12 cells, 30 min treatment
Protocol: (§1) Effects of compounds on AMPK activation were analyzed in mouse muscle cell C2C12, mouse fibroblast 3T3-L1 and human hepatocyte Hep G2. Those cell lines were cultured in high-glucose Dulbecco's modified Eagle's medium (DMEM) containing 10% fetal bovine serum (FBS), 4 mM L-glutamine, 2 mM sodium pyruvate and 1% penicillin/streptomycin (Invitrogen GibcoBRL, Carlsbad, Calif., USA) at 37° C. under 5% CO2. Cells were plated at 3×10^5 per well (6-well plate). 24 h after plating, cells were treated with indicated compounds for 30 min followed by cell lysis and western blot analysis. Equal amount of protein were separated by SDS-PAGE and then electroblotted on to PVDF membranes. Membranes were blocked with 3% BSA in PBS for 60 min and incubated with anti-phospho-AMPK (Thr172) antibody (1:2,000, Cell signaling), anti-AMPK antibody (1:2,000, Cell signaling), anti-Glut4 antibody (1:1,000, Millipore) or anti-actin antibody (1:5,000; Chemicon International) at 4° C. overnight followed by the corresponding secondary antibody for 1 h at room temperature (RT). Immunoreactive bands were detected by enhanced chemiluminescence (ECL; Pierce, Rockford, Ill., USA) and recorded using Kodakfilm (Rochester, N.Y., USA). The detected signals were scanned and then quantified by using TotalLab Quant software (TotalLab).

AMPK [2] = test: AMPK activation assay (western blot phospho-AMPK Thr172) in 3T3-L1; format: cell-based, mouse; conditions: 3T3-L1 cells, 30 min treatment
Protocol: as §1

AMPK [3] = test: AMPK activation assay (western blot phospho-AMPK Thr172) in Hep G2; format: cell-based, human; conditions: Hep G2 cells, 30 min treatment
Protocol: as §1

SMILES	AMPK activation (% to control) C2C12 (AMPK [1]; 1 microM)	AMPK activation (% to control) C2C12 (AMPK [1]; 10 microM)	AMPK activation (% to control) C2C12 (AMPK [1]; 100 microM)	AMPK activation (% to control) C2C12 (AMPK [1]; 200 microM)	AMPK activation (% to control) 3T3-L1 (AMPK [2]; 1 microM)	AMPK activation (% to control) 3T3-L1 (AMPK [2]; 10 microM)	AMPK activation (% to control) 3T3-L1 (AMPK [2]; 100 microM)	AMPK activation (% to control) 3T3-L1 (AMPK [2]; 200 microM)	AMPK activation (% to control) Hep G2 (AMPK [3]; 1 microM)	AMPK activation (% to control) Hep G2 (AMPK [3]; 10 microM)	AMPK activation (% to control) Hep G2 (AMPK [3]; 100 microM)	AMPK activation (% to control) Hep G2 (AMPK [3]; 200 microM)
Nc1nc(NCc2ccccc2)nc2nc[nH]c12 [Example 2-benzylamino-6-aminopurine, 2-benzylamino-6-aminopurine]	110 % to control	128 % to control	259 % to control	312 % to control	119 % to control	147 % to control	217 % to control	308 % to control	105 % to control	116 % to control	235 % to control	364 % to control
Nc1nc(Br)nc2nc[nH]c12 [Example 2-bromoadenine, 2-bromoadenine]	116 % to control	172 % to control	263 % to control	349 % to control	119 % to control	188 % to control	277 % to control	361 % to control	113 % to control	190 % to control	253 % to control	354 % to control
O=c1[nH]c(Br)nc2nc[nH]c12 [Example 2-bromohypoxanthine, 2-bromohypoxanthine]	108 % to control	142 % to control	214 % to control	321 % to control	111 % to control	176 % to control	245 % to control	357 % to control	110 % to control	160 % to control	242 % to control	359 % to control
Oc1nc(Cl)nc2nc[nH]c12 [Example 2-chloro-6-hydroxypurine, 2-chloro-6-hydroxypurine]	109 % to control	156 % to control	277 % to control	331 % to control	108 % to control	145 % to control	243 % to control	356 % to control	110 % to control	163 % to control	249 % to control	375 % to control
Nc1nc(Cl)nc2nc[nH]c12 [Example 2-chloroadenine, 2-chloroadenine]	110 % to control	155 % to control	284 % to control	326 % to control	118 % to control	143 % to control	271 % to control	311 % to control	116 % to control	139 % to control	220 % to control	314 % to control
Nc1nc(F)nc2nc[nH]c12 [Example 2-fluoroadenine, 2-fluoroadenine]	102 % to control	112 % to control	213 % to control	303 % to control	114 % to control	165 % to control	291 % to control	323 % to control	117 % to control	180 % to control	259 % to control	315 % to control
Oc1nc(NCc2ccccc2)c2[nH]cnc2n1 [Example 2-hydroxy-6-benzylaminopurine, 2-hydroxy-6-benzylaminopurine]	108 % to control	135 % to control	244 % to control	356 % to control	115 % to control	126 % to control	230 % to control	309 % to control	109 % to control	137 % to control	261 % to control	338 % to control
Oc1nc(S)c2[nH]cnc2n1 [Example 2-hydroxy-6-mercaptopurine, 2-hydroxy-6-mercaptopurine]	104 % to control	109 % to control	198 % to control	251 % to control	118 % to control	122 % to control	210 % to control	277 % to control	105 % to control	108 % to control	204 % to control	222 % to control
CNc1nc(O)nc2nc[nH]c12 [Example 2-hydroxy-6-methylaminopurine, 2-hydroxy-6-methylaminopurine]	118 % to control	151 % to control	255 % to control	361 % to control	113 % to control	162 % to control	271 % to control	382 % to control	115 % to control	148 % to control	266 % to control	354 % to control
CCCNc1nc(O)nc2nc[nH]c12 [Example 2-hydroxy-6-propylaminopurine, 2-hydroxy-6-propylaminopurine]	114 % to control	122 % to control	201 % to control	324 % to control	109 % to control	129 % to control	233 % to control	361 % to control	110 % to control	133 % to control	270 % to control	339 % to control
